Where “and” joins values, the source holds several entries; their conditions need not be identical. Identical values can stand only once.
System: 317291-083-R-J1-PDC complex spheroid growth
Assay: Anticancer human tumor 317291-083-R-J1-PDC patient-derived soft tissue sarcoma cell line growth inhibition [Asc]
Conditions: for viability, T/C: stronger effect = lower value
Description: Multicellular complex tumor spheroid response to apoptosis pathway targeting inhibitors Alrizomadlin, Pelcitoclax, and Dasminapant in combination with a variety of drugs and investigational agents in selected tumor cell lines
The MDM2 inhibitor alrizomadlin, the Bcl-2/Bcl-xL inhibitor pelcitoclax, and the IAPs inhibitor dasminapant were evaluated both individually and in combination with standard of care and investigational anticancer small molecules within a complex spheroid model of solid tumors. . Complex spheroids include a stromal component modeled by human endothelial cells (HUVEC) and fibroblasts modeled by human mesenchymal stem cells (MSCs). The concentration ranges selected for each drug and investigational agent were based upon clinically achievable concentrations if the clinical Cmax of the agent was known.
Compounds. The drugs and investigational agents: alrizomadlin (APG-115; NSC831270), pelcitoclax (APG-1252; NSC835773), dasminapant (APG-1387;NSC834197), TAK-243 (NSC785004), copanlisib (NSC809693), olaparib (NSC753686), talazoparib (NSC767125), cobimetinib (NSC 768068), eltanexor (KPT-8602, NSC 794443), abemaciclib (NSC 768073), sotorasib (NSC818433), adagrasib (NSC 831453), MRTX-1133 (NSC 836407), Iadademestat (ORY1001, NSC 806812), and RMC-4630 (NSC839698), were obtained from the NCI Developmental Therapeutics Program Chemical Repository. The FDA-approved anticancer drug set is available from the Developmental Therapeutics Program at https://dtp.cancer.gov/organization/dscb/obtaining/available plates.htm. […] The stock solutions were prepared in dimethyl sulfoxide (DMSO, Sigma-Aldrich, St. Louis, MO, cat. D2650) at 800-fold the tested concentration and stored at -70 degrees C prior to their use. All drugs and investigational agents were tested over a range starting from a high concentration at or near the clinical Cmax and decreasing in half-log increments. If the clinical Cmax for an agent had not been determined, the highest concentration tested was 10 microM.
The patient-derived cancer (PDC) cell lines include five colon adenocarcinomas: 186277-243-T-J2-PDC, 616215-338-R-J1-PDC, 439559-082-T-J2-PDC, 463943-066-T-J2-PDC, and 519858-162-T-J1-PDC; three pancreatic carcinomas: 323965-272-R-J2-PDC, 521955-158-R6-J3-PDC, and 521955-158-R2-J5-PDC; two uterine sarcomas: 327498-152-R-J2-PDC and 993429-296-R-J1-PDC; two rhabdomyosarcomas: 755483-174-R-J1-PDC and 772245-204-R-J1-PDC; two soft tissue sarcomas: 126254-015-R-J1-PDC and 494315-158-R-J1-PDC; two malignant fibrous histiocytomas: 317291-083-R-J1-PDC and 596521-263-R-J1-PDC; two breast carcinomas: 171881-019-R-J1-PDC and 885512-296-R-J2-PDC; and one ovarian carcinoma: 6556581-035-R-J-PDC were obtained from the NCI PDMR, (https://pdmr.cancer.gov). The established cell lines HSSY-2 synovial sarcoma (RRID:CVCL 8719), SYO-1 synovial sarcoma (RRID:CVCL_7146), MPNST malignant peripheral neural sheath tumor were obtained from the Sloan Kettering Institute. The following established cell lines were purchased from the American Type Culture Collection (ATCC, Manassas, VA), Sor the received from the NCI repository:, PANC-1 pancreatic carcinoma (CRL-1469, RRID:CVCL_0480), OVCAR-5 ovarian carcinoma (RRID:CVCL_1628), OVCAR-8 ovarian carcinoma (RRID:CVCL_1629), , MCF-7 breast carcinoma (CRL-12584, RRID:CVCL_0031), MDA-MB-231 breast carcinoma (CRL-12532, RRID:CVCL_0062), NCI-H1876 small cell lung carcinoma (CRL-5902, RRID:CVCL_1503), NCI-H510A small cell lung carcinoma (HTB-184, RRID:CVCL_1565), NCI-H1417 (CRL-5869, RRID:CVCL_1469), and NCI-H196 small cell lung carcinoma (CRL-5823, RRID:CVCL_1509). Dr. Peter Houghton (Greehey Children's Cancer Research Institute, University of Texas Health Science Center, San Antonio, TX) provided Rh-18 rhabdomyosarcoma (RRID:CVCL_1659). Pooled donor human umbilical vein endothelial cells (HUVEC, Lonza, cat. CC-2519) and human mesenchymal stem cells (hMSC, Lonza, cat. PT-2501) were purchased from Lonza (Walkersville, MD).
Cell Culture. […]
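Also: compound exposure lasted seven days after spheroids formed for three days.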
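For viability, T/C in this document: 100% = DMSO vehicle control wells.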

Row | Compound | viability, T/C (compound 0.0316 µM) | viability, T/C (compound 0.316 µM) | IC50 (curve of compound) | viability, T/C (compound 0.00316 µM) | viability, T/C (compound 0.01 µM) | viability, T/C (compound 0.1 µM) | further results
1 | Cc1c(S(C)(=O)=O)c(-c2cc(F)cc(N3CCN(c4ccc(NS(=O)(=O)c5ccc(NC(CCN6CCC(C(=O)OCCCP(=O)(O)O)CC6)CSc6ccccc6)c(S(=O)(=O)C(F)(F)F)c5)cc4)CC3)c2)c(-c2ccc(Cl)cc2)n1C(C)C (stereo not given) | 98% [middle of 7 runs] | 93.2% [middle of 7 runs] |  |  |  |  | viability, T/C (compound 3.16 µM): 81% [middle of 7 runs]; IC50 (compound alone, run of 11/07/2022): > 10000 nM
2 | Cc1nc(N2CCC3(CC2)COC(C)C3N)c(CO)nc1Sc1ccnc(N)c1Cl (stereo not given) |  |  | 2000 nM and > 3000 nM |  |  |  | viability, T/C (compound 0.00949 µM): 108% and 113% and 102%; viability, T/C (compound 0.03 µM): 83.1% and 90.6% and 95.5%; viability, T/C (compound 0.0949 µM): 79.3% and 103% and 99.2%; viability, T/C (compound 0.3 µM): 73.6% and 89.4% and 77.2%; viability, T/C (compound 0.949 µM): 59.2% and 66.4% and 64.5%; viability, T/C (compound 3 µM): 43.2% and 58.9% and 51%
3 | Cn1ncnc1[C@H]1c2n[nH]c(=O)c3cc(F)cc(c23)N[C@@H]1c1ccc(F)cc1 | 68.7% and 96.5% and 83% |  | > 100 nM | 80.5% and 107% and 99% | 89.2% and 87.3% and 89% | 70.7% and 81% and 56.7% | viability, T/C (compound 0.000316 µM): 99% and 111% and 93.9%; viability, T/C (compound 0.001 µM): 81.6% and 81.9% and 107%
4 | NC(=O)C(=Cn1cnc(-c2cc(C(F)(F)F)cc(C(F)(F)F)c2)n1)c1cncnc1 |  |  |  |  |  |  | viability, T/C (compound 0.000949 µM): 92.5% and 89.6% and 23.9%; viability, T/C (compound 0.003 µM): 88.1% and 74.5% and 25.9%; viability, T/C (compound 0.00949 µM): 92.4% and 72% and 36.3%; viability, T/C (compound 0.03 µM): 45.8% and 39.8% and 16%; viability, T/C (compound 0.0949 µM): 6.6% and 6.29% and 7.34%; viability, T/C (compound 0.3 µM): 3.75% and 1.91% and 3.91%
5 | NC1CCC(NC2CC2c2ccccc2)CC1 (stereo not given) | 91.5% and 112% and 96.1% |  | > 100 nM | 84.8% and 99.5% and 109% | 95.1% and 93.7% and 104% | 97.7% and 80.4% and 90% | viability, T/C (compound 0.000316 µM): 107% and 84.4% and 104%; viability, T/C (compound 0.001 µM): 97.8% and 80.7% and 96.1%
6 | O=C(c1cc(Cc2n[nH]c(=O)c3ccccc23)ccc1F)N1CCN(C(=O)C2CC2)CC1 | 106% and 111% and 91.2% | 110% and 87.8% and 93.8% | 8070 nM and 9240 nM and 2970 nM |  |  | 76.1% and 100% and 97% | viability, T/C (compound 1 µM): 83% and 101% and 88.7%; viability, T/C (compound 3.16 µM): 82.7% and 84.3% and 47.8%; viability, T/C (compound 10 µM): 42.5% and 46.9% and 32.5%
7 | O=C(c1ccc(F)c(F)c1Nc1ccc(I)cc1F)N1CC(O)([C@@H]2CCCCN2)C1 | 109% and 88.6% and 93.6% | 65.2% and 71.6% and 81.1% | 462 nM and 504 nM and 599 nM | 97% and 91.5% and 98.6% | 102% and 91.8% and 91% | 94.1% and 119% and 117% | viability, T/C (compound 1 µM): 19.6% and 18.1% and 25%
